US20160041192A1 (Ameritox, Ltd., priority 2014, published 2016)
Each block holds one molecule with its values, some of them ahead of it.

How the values were obtained:
[1] = humans; cited from earlier work
[2] = Urine test of patients prescribed Seroquel after enzymatic hydrolysis with recombinant β-glucuronidase, QQQ; assay type: in vivo, human; settings: patient prescribed Seroquel, various doses
Procedure: 100 μL of each patient specimen was diluted with 400 μL of a “master mix” that included 1.6 μg/mL of quetiapine-D8 (internal standard), 0.06 M phosphate buffer, and at least 1450 U of a recombinant β-glucuronidase enzyme.

[3] = human, in vivo
Procedure: (§1) Samples were subsequently vortexed and centrifuged prior to the injection of 5 μL on the QQQ. Each patient sample was analyzed twice to ensure accuracy.
(§2) Samples were subsequently vortexed and centrifuged prior to the injection of 5 μL on the QQQ.
as §2, §1, §2, §2, §2, §2, §2

[4] = cited from earlier work
[5] = post oral dosing; cited from earlier work
[6] = human urine; major defined by ≧10% total drug exposure (Baselt 2014); cited from earlier work

- Urine concentration, Post-Hydrolysis Results, Subject T [2]: 86 ng/mL
- Urine concentration, Post-Hydrolysis Results, Subject eleven [2]: 4059 ng/mL
- Urine concentration, Post-Hydrolysis Results, Subject fifteen [2]: >5000 ng/mL
- Urine concentration, Post-Hydrolysis Results, Subject four [2]: 2928 ng/mL
- Urine concentration, Post-Hydrolysis Results, Subject nine [2]: 1494 ng/mL
- Urine concentration, Post-Hydrolysis Results, Subject nineteen [2]: 29 ng/mL
- Urine concentration, Post-Hydrolysis Results, Subject seventeen [2]: >5000 ng/mL
- Urine concentration, Post-Hydrolysis Results, Subject sixteen [2]: 3019 ng/mL
- Urine concentration, Post-Hydrolysis Results, Subject twenty [2]: >5000 ng/mL
- Urine concentration, Post-Hydrolysis Results, Subject twenty-five [2]: 2579 ng/mL
- Urine concentration, Post-Hydrolysis Results, Subject twenty-three [2]: 14 ng/mL
- Urine concentration, Pre-Hydrolysis Results, Average [3]: 838 ng/mL
- Urine concentration, Pre-Hydrolysis Results, Maximum Value [3]: 4999 ng/mL
- Urine concentration, Pre-Hydrolysis Results, Median Value [3]: 287 ng/mL
- Urine concentration, Pre-Hydrolysis Results, Minimum Value [3]: 17 ng/mL
- Urine concentration, Pre-Hydrolysis Results, Subject HR [3]: 4574 ng/mL
- Urine concentration, Pre-Hydrolysis Results, Subject eight [3]: 120 ng/mL
- Urine concentration, Pre-Hydrolysis Results, Subject eighteen [3]: 755 ng/mL
- Urine concentration, Pre-Hydrolysis Results, Subject eleven [3]: 17 ng/mL
- Urine concentration, Pre-Hydrolysis Results, Subject fifteen [3]: 1118 ng/mL
- Urine concentration, Pre-Hydrolysis Results, Subject five [3]: 77 ng/mL
- Urine concentration, Pre-Hydrolysis Results, Subject four [3]: 187 ng/mL
- Urine concentration, Pre-Hydrolysis Results, Subject fourteen [3]: 917 ng/mL
- Urine concentration, Pre-Hydrolysis Results, Subject one [3]: 269 ng/mL
- Urine concentration, Pre-Hydrolysis Results, Subject seven [3]: 873 ng/mL
- Urine concentration, Pre-Hydrolysis Results, Subject seventeen [3]: 315 ng/mL
- Urine concentration, Pre-Hydrolysis Results, Subject six [3]: 77 ng/mL
- Urine concentration, Pre-Hydrolysis Results, Subject sixteen [3]: 97 ng/mL
- Urine concentration, Pre-Hydrolysis Results, Subject thirteen [3]: 1137 ng/mL
- Urine concentration, Pre-Hydrolysis Results, Subject three [3]: 304 ng/mL
- Urine concentration, Pre-Hydrolysis Results, Subject twelve [3]: 361 ng/mL
- Urine concentration, Pre-Hydrolysis Results, Subject twenty [3]: 208 ng/mL
- Urine concentration, Pre-Hydrolysis Results, Subject twenty-one [3]: 137 ng/mL
- Urine concentration, Pre-Hydrolysis Results, Subject twenty-two [3]: 222 ng/mL
- Urine concentration, Pre-Hydrolysis Results, Subject two [3]: 4999 ng/mL
Structure (SMILES): OCCOCCN1CCN(C2=Nc3ccccc3Sc3ccccc32)CC1 [Quetiapine, 2-(2-(4-dibenzo[b,f][1,4]thiazepine-11-yl-1-piperazinyl)ethoxy) ethanol, reference compound]
- excreted in the feces [1]: 20%
- recovered in the urine [1]: 73%
- Urine concentration, Post-Hydrolysis Results, Subject W [2]: ND (Indicates that the listed parent or metabolite compound was either not detected or detected below the established cut-off of 5 ng/mL indicating a negative result for that particular subject.)
- time to steady state serum concentrations ([4]; days of dosing): 2 days
- increase of bioavailability ([4]; dosing with a light meal (~300 calories)): ~20%
- mean elimination half-life ([4]; in vivo): 6 h
- absorption ([4]; oral administration): rapidly absorbed
- share of the total radioactivity in plasma [5]: 24%

Structure (SMILES): [O-][S+]1c2ccccc2N=C(N2CCN(CCOCCO)CC2)c2ccccc21 (centres unmarked) [Quetiapine Sulfoxide]
- abundance in urine [6]: major
- Urine concentration, Post-Hydrolysis Results, Subject W [2]: ND (Indicates that the listed parent or metabolite compound was either not detected or detected below the established cut-off of 5 ng/mL indicating a negative result for that particular subject.)
- Urine concentration, Pre-Hydrolysis Results, Average [3]: 2318 ng/mL
- Urine concentration, Pre-Hydrolysis Results, Maximum Value [3]: >5000 ng/mL
- Urine concentration, Pre-Hydrolysis Results, Median Value [3]: 2143 ng/mL
- Urine concentration, Pre-Hydrolysis Results, Subject HR [3]: >5000 ng/mL
- Urine concentration, Pre-Hydrolysis Results, Subject eight [3]: >5000 ng/mL
- Urine concentration, Pre-Hydrolysis Results, Subject eighteen [3]: >5000 ng/mL
- Urine concentration, Pre-Hydrolysis Results, Subject eleven [3]: 2143 ng/mL
- Urine concentration, Pre-Hydrolysis Results, Subject fifteen [3]: 740 ng/mL
- Urine concentration, Pre-Hydrolysis Results, Subject five [3]: 4484 ng/mL
- Urine concentration, Pre-Hydrolysis Results, Subject four [3]: >5000 ng/mL
- Urine concentration, Pre-Hydrolysis Results, Subject fourteen [3]: >5000 ng/mL
- Urine concentration, Pre-Hydrolysis Results, Subject nine [3]: >5000 ng/mL
- Urine concentration, Pre-Hydrolysis Results, Subject one [3]: >5000 ng/mL
- Urine concentration, Pre-Hydrolysis Results, Subject seven [3]: >5000 ng/mL
- Urine concentration, Pre-Hydrolysis Results, Subject seventeen [3]: >5000 ng/mL
- Urine concentration, Pre-Hydrolysis Results, Subject six [3]: 1252 ng/mL
- Urine concentration, Pre-Hydrolysis Results, Subject sixteen [3]: 2971 ng/mL
- Urine concentration, Pre-Hydrolysis Results, Subject thirteen [3]: >5000 ng/mL
- Urine concentration, Pre-Hydrolysis Results, Subject three [3]: >5000 ng/mL
- Urine concentration, Pre-Hydrolysis Results, Subject twelve [3]: >5000 ng/mL
- Urine concentration, Pre-Hydrolysis Results, Subject twenty [3]: >5000 ng/mL
- Urine concentration, Pre-Hydrolysis Results, Subject twenty-five [3]: >5000 ng/mL
- Urine concentration, Pre-Hydrolysis Results, Subject twenty-four [3]: >5000 ng/mL
- Urine concentration, Pre-Hydrolysis Results, Subject twenty-one [3]: >5000 ng/mL
- Urine concentration, Pre-Hydrolysis Results, Subject twenty-two [3]: >5000 ng/mL
- Urine concentration, Pre-Hydrolysis Results, Subject two [3]: >5000 ng/mL

Structure (SMILES): c1ccc2c(c1)N=C(N1CCNCC1)c1ccccc1S2 [N-Desalkyl Quetiapine, N-Desalkyl Quetiapine (Norquetiapine)]
- abundance in urine [6]: only small quantities
- share of the total radioactivity in plasma [5]: 10%

Structure (SMILES): O=C(O)COCCN1CCN(C2=Nc3ccccc3Sc3ccccc32)CC1 [Quetiapine Carboxylic Acid]
- abundance in urine [6]: major
- Urine concentration, Pre-Hydrolysis Results, Subject HR [3]: >5000 ng/mL
- Urine concentration, Pre-Hydrolysis Results, Subject T [3]: 6 ng/mL
- Urine concentration, Pre-Hydrolysis Results, Subject W [3]: 5 ng/mL
- Urine concentration, Pre-Hydrolysis Results, Subject eight [3]: >5000 ng/mL
- Urine concentration, Pre-Hydrolysis Results, Subject eighteen [3]: >5000 ng/mL
- Urine concentration, Pre-Hydrolysis Results, Subject eleven [3]: >5000 ng/mL
- Urine concentration, Pre-Hydrolysis Results, Subject fifteen [3]: >5000 ng/mL
- Urine concentration, Pre-Hydrolysis Results, Subject five [3]: >5000 ng/mL
- Urine concentration, Pre-Hydrolysis Results, Subject four [3]: >5000 ng/mL
- Urine concentration, Pre-Hydrolysis Results, Subject fourteen [3]: >5000 ng/mL
- Urine concentration, Pre-Hydrolysis Results, Subject nine [3]: >5000 ng/mL
- Urine concentration, Pre-Hydrolysis Results, Subject nineteen [3]: 5 ng/mL
- Urine concentration, Pre-Hydrolysis Results, Subject one [3]: >5000 ng/mL
- Urine concentration, Pre-Hydrolysis Results, Subject seven [3]: >5000 ng/mL
- Urine concentration, Pre-Hydrolysis Results, Subject seventeen [3]: >5000 ng/mL
- Urine concentration, Pre-Hydrolysis Results, Subject sixteen [3]: >5000 ng/mL
- Urine concentration, Pre-Hydrolysis Results, Subject thirteen [3]: >5000 ng/mL
- Urine concentration, Pre-Hydrolysis Results, Subject three [3]: >5000 ng/mL
- Urine concentration, Pre-Hydrolysis Results, Subject twelve [3]: >5000 ng/mL
- Urine concentration, Pre-Hydrolysis Results, Subject twenty [3]: >5000 ng/mL
- Urine concentration, Pre-Hydrolysis Results, Subject twenty-five [3]: >5000 ng/mL
- Urine concentration, Pre-Hydrolysis Results, Subject twenty-four [3]: >5000 ng/mL
- Urine concentration, Pre-Hydrolysis Results, Subject twenty-three [3]: 10 ng/mL
- Urine concentration, Pre-Hydrolysis Results, Subject twenty-two [3]: >5000 ng/mL
